# Measured values from PubChem BioAssay AID330 (DTP/NCI, 2004).
# “And” between values parts separate entries of the source, which are not always exact repeats. Equal entries are not always repeated. Inconclusive results and toxic doses are left out. Numbered stars: 1 amine (or outer) side, 2 acyl side, 3 side chain; on linkers, the order of the positions; unused ones are H or OH. Bridge positions count the residues as written; N and C are the ends. Square brackets hold non-standard residues; d marks the D form. Peptide text beside a SMILES is read from it. I, II: the chains in the order shown. Actinocin(9to1) = Cc1c2oc3c(C)ccc(C(=O)[*:1])c3nc-2c(C(=O)[*:2])c(N)c1=O; NMeV = CN[CH](C(=O)O)C(C)C; Sar = CNCC(=O)O
# Test system: P388 leukemia ip, CD2F1 mice, survival T/C
# Test: NCI In Vivo Anticancer Drug Screen. Data for tumor model P388 Leukemia (intraperitoneal) in CD2F1 (CDF1) mice
# Settings: endpoint: median survival time, higher = longer survival
# How it was run: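 Mice carrying the transplanted tumor received test compound or vehicle. Survival was recorded in each group, and the value is the treated-group measurement divided by that of the vehicle-treated control group.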
# [1] = dose: 50.0 mg/kg/injection, schedule: Q01DX005 (ip), vehicle: saline with Tween-80
# [2] = dose: 100.0 mg/kg/injection, schedule: Q01DX005 (ip), vehicle: saline with Tween-80
# [3] = dose: 50.0 mg/kg/injection, schedule: Q01DX009 (ip), vehicle: saline with Tween-80
# [4] = dose: 100.0 mg/kg/injection, schedule: Q01DX009 (ip), vehicle: saline with Tween-80
structure (smiles),measurement,setting,value
CCC1=CC2CN(CCc3c([nH]c4ccccc34)C(C(=O)OC)(c3cc4c(cc3OC)N(C)C3C(O)(C(=O)OC)C(OC(C)=O)C5(CC)CCCN6CCC43C65)C2)C1 (stereo not drawn),T/C,"dose: 0.06 mg/kg/injection, schedule: Q01DX009 (ip), vehicle: water",95 % of control
same,T/C,"dose: 0.13 mg/kg/injection, schedule: Q01DX009 (ip), vehicle: water",94 % of control
same,T/C,"dose: 0.25 mg/kg/injection, schedule: Q01DX009 (ip), vehicle: water",94 % of control
same,T/C,"dose: 0.5 mg/kg/injection, schedule: Q01DX009 (ip), vehicle: water",90 % of control
same,T/C,"dose: 1.0 mg/kg/injection, schedule: Q01DX001 (ip), vehicle: water",100 % of control and 115 % of control
same,T/C,"dose: 1.0 mg/kg/injection, schedule: Q01DX009 (ip), vehicle: water",90 % of control
same,T/C,"dose: 2.0 mg/kg/injection, schedule: Q01DX001 (ip), vehicle: water",107 % of control and 100 % of control
same,T/C,"dose: 2.0 mg/kg/injection, schedule: Q01DX009 (ip), vehicle: water",106 % of control and 110 % of control
same,T/C,"dose: 4.0 mg/kg/injection, schedule: Q01DX001 (ip), vehicle: water",110 % of control and 108 % of control
same,T/C,"dose: 4.0 mg/kg/injection, schedule: Q01DX009 (ip), vehicle: water",109 % of control and 111 % of control
same,T/C,"dose: 8.0 mg/kg/injection, schedule: Q01DX001 (ip), vehicle: water",119 % of control and 109 % of control and 115 % of control
same,T/C,"dose: 8.0 mg/kg/injection, schedule: Q01DX009 (ip), vehicle: water",122 % of control
same,T/C,"dose: 16.0 mg/kg/injection, schedule: Q01DX001 (ip), vehicle: water",122 % of control and 112 % of control and 116 % of control
same,T/C,"dose: 32.0 mg/kg/injection, schedule: Q01DX001 (ip), vehicle: water",122 % of control and 115 % of control and 119 % of control
CSCCC(NC(=O)C(Cc1ccccc1)NC(=O)CNC(=O)CNC(=O)C(N)Cc1ccc(O)cc1)C(=O)O (stereo not drawn),T/C,[1],101 % of control
same,T/C,[2],92 % of control
same,T/C,"dose: 200.0 mg/kg/injection, schedule: Q01DX005 (ip), vehicle: saline with Tween-80",92 % of control
CSc1cccc(NC(=O)OCCOc2ccc([N+](=O)[O-])cc2)c1,T/C,"dose: 50.0 mg/kg/injection, schedule: Q01DX009 (ip), vehicle: Klucel (hydroxypropylcellulose) (HPC)",98 % of control
same,T/C,"dose: 100.0 mg/kg/injection, schedule: Q01DX009 (ip), vehicle: Klucel (hydroxypropylcellulose) (HPC)",101 % of control
same,T/C,"dose: 200.0 mg/kg/injection, schedule: Q01DX009 (ip), vehicle: Klucel (hydroxypropylcellulose) (HPC)",99 % of control
OC(c1ccccc1I1OC(C(F)(F)F)(C(F)(F)F)c2ccccc21)(C(F)(F)F)C(F)(F)F (tested in a mixture with another compound),T/C,"dose: 1.56 mg/kg/injection, schedule: Q01DX005 (ip), vehicle: Klucel (hydroxypropylcellulose) (HPC)",99 % of control
same,T/C,"dose: 3.12 mg/kg/injection, schedule: Q01DX005 (ip), vehicle: Klucel (hydroxypropylcellulose) (HPC)",93 % of control
same,T/C,"dose: 6.25 mg/kg/injection, schedule: Q01DX005 (ip), vehicle: Klucel (hydroxypropylcellulose) (HPC)",98 % of control
COc1ccc(NNc2ccc(OC)cc2)cc1,T/C,"dose: 50.0 mg/kg/injection, schedule: Q04DX003 (ip), vehicle: saline with Tween-80",100 % of control
same,T/C,"dose: 100.0 mg/kg/injection, schedule: Q04DX003 (ip), vehicle: saline with Tween-80",92 % of control
same,T/C,"dose: 200.0 mg/kg/injection, schedule: Q04DX003 (ip), vehicle: saline with Tween-80",92 % of control
O=C(Cn1c(=O)cc(Nc2ccccc2)c2ccccc21)Nc1ccccc1,T/C,"dose: 100.0 mg/kg/injection, schedule: Q01DX001 (ip), vehicle: saline with Tween-80",94 % of control
same,T/C,"dose: 200.0 mg/kg/injection, schedule: Q01DX001 (ip), vehicle: saline with Tween-80",94 % of control
same,T/C,"dose: 400.0 mg/kg/injection, schedule: Q01DX001 (ip), vehicle: saline with Tween-80",94 % of control
S[C@@H]1CCCN1,T/C,"dose: 50.0 mg/kg/injection, schedule: Q01DX005 (ip), vehicle: saline",97 % of control
same,T/C,"dose: 100.0 mg/kg/injection, schedule: Q01DX005 (ip), vehicle: saline",102 % of control
same,T/C,"dose: 200.0 mg/kg/injection, schedule: Q01DX005 (ip), vehicle: saline",99 % of control
Cc1cccc(Cl)c1NC(=O)Nc1cccc(C#N)c1,T/C,"dose: 60.0 mg/kg/injection, schedule: Q01DX005 (ip), vehicle: saline with Tween-80",93 % of control
same,T/C,"dose: 120.0 mg/kg/injection, schedule: Q01DX005 (ip), vehicle: saline with Tween-80",89 % of control
same,T/C,"dose: 240.0 mg/kg/injection, schedule: Q01DX005 (ip), vehicle: saline with Tween-80",98 % of control
COc1c2occc2c(S(N)(=O)=O)c2ccc(=O)oc12,T/C,"dose: 25.0 mg/kg/injection, schedule: Q01DX009 (ip), vehicle: saline with Tween-80",106 % of control
same,T/C,[3],103 % of control
same,T/C,[4],106 % of control
"Cc1c2oc3c(C)ccc(C(=O)NC4C(=O)NC(C(C)C)C(=O)N(C)CC(=O)N(C)CC(=O)N(C)C(C(C)C)C(=O)OC4C)c3nc-2c(C(=O)NC2C(=O)NC(C(C)C)C(=O)N(C)CC(=O)N(C)CC(=O)N(C)C(C(C)C)C(=O)OC2C)c(N)c1=O (stereo not drawn) (I: TV[Sar][Sar][NMeV] / II: TV[Sar][Sar][NMeV]; ester I:1-I:C, II:1-II:C; linker I:N-II:N via Actinocin(9to1); configuration not given here)",T/C,"dose: 0.1 mg/kg/injection, schedule: Q01DX009 (ip), vehicle: water",164 % of control
same,T/C,"dose: 0.18 mg/kg/injection, schedule: Q01DX009 (ip), vehicle: other",166 % of control
same,T/C,"dose: 0.2 mg/kg/injection, schedule: Q01DX009 (ip), vehicle: water",166 % of control
same,T/C,"dose: 0.27 mg/kg/injection, schedule: Q01DX009 (ip), vehicle: other",202 % of control
same,T/C,"dose: 0.4 mg/kg/injection, schedule: Q01DX009 (ip), vehicle: other",200 % of control
same,T/C,"dose: 0.4 mg/kg/injection, schedule: Q01DX009 (ip), vehicle: water",205 % of control
same,T/C,"dose: 0.6 mg/kg/injection, schedule: Q01DX009 (ip), vehicle: other",270 % of control
same,T/C,"dose: 0.8 mg/kg/injection, schedule: Q01DX009 (ip), vehicle: water",156 % of control
same,T/C,"dose: 1.6 mg/kg/injection, schedule: Q01DX009 (ip), vehicle: water",88 % of control
CC(C)NC(=O)OCc1c(COC(=O)NC(C)C)c2n(c1-c1ccc(Cl)c(Cl)c1)CCS2=O (stereo not drawn),T/C,"dose: 25.0 mg/kg/injection, schedule: Q01DX005 (ip), vehicle: saline with Tween-80",100 % of control
same,T/C,[1],97 % of control
same,T/C,[2],87 % of control
O=C(Nc1cc(C(F)(F)F)ccc1Cl)n1nc(Cl)c2ccc([N+](=O)[O-])cc21,T/C,[3],102 % of control
same,T/C,[4],104 % of control
same,T/C,"dose: 200.0 mg/kg/injection, schedule: Q01DX009 (ip), vehicle: saline with Tween-80",95 % of control
